SMILES strings stand for the structures. Where two headings read alike, the source gives them in different places.

This is an account of results in patent US20240140962A1, “5,6-DIHYDROTHIENO[3,4-H]QUINAZOLINE COMPOUND” (MEDSHINE DISCOVERY INC., priority 2021, published 2024).

The subject of one data set is HCT116 cells. Nature of the data set: HCT116 cytological activity in vitro (3D CellTiter-Glo proliferation). Format: cell-based, human. The note with it: 5 days culture, ultra-low adsorption plates. How it is done:
McCoy's 5A medium, penicillin/streptomycin antibiotics was purchased from Vicente, and fetal bovine serum was purchased from Biosera. 3D CellTiter-Glo (cell viability chemiluminescence assay reagent) reagent was purchased from Promega. HCT116 cell line was purchased from Nanjing Cobioer Biosciences Co., Ltd. Envision multimode microplate reader (PerkinElmer).
HCT116 cells were seeded in ultra-low adsorption 96-well U-plates, 80 μL of cell suspension per well, which contained 1000 HCT116 cells. Cell plates were cultured overnight in a carbon dioxide incubator.
The compound to be tested was 5-fold diluted to the 9th concentration with a pipette, that is, diluted from 2 mM to 5.12 nM, and a double-well experiment was set up. 78 μL of medium was added to the intermediate plate, and then 2 μL of each well of the gradient diluted compound was transferred to the intermediate plate according to the corresponding position, 20 μL of each well was transferred to the cell plate after mixing well. Compound concentrations transferred to cell plates ranged from 10 μM to 0.0256 nM. Cell plates were cultured in a carbon dioxide incubator for 5 days. Another cell plate was prepared, and the signal value was read as the maximum value (Max value in the following equation) on the day of drug addition to participate in data analysis.
Every 100 μL of cell viability chemiluminescent detection reagent was added to the cell plate, and incubated at room temperature for 10 minutes to stabilize the luminescent signal. A multimode microplate reader was used to read.
The equation (Sample−Min)/(Max−Min)*100% was used to convert the original data into an inhibition rate, and the value of IC50 can be obtained by curve fitting with four parameters (“log(inhibitor) vs. response in GraphPad Prism—Variable slope” mode). Table 3 provides the inhibitory activity of the compounds of the present disclosure against the proliferation of HCT116 cells.

Data set [1] is described as follows: Pharmacokinetic study in CD-1 male mice by oral administration and intravenous injection. Format: in vivo. To be noted: for Vd: read-out: Apparent volume of distribution Vdss; for AUC(0-t): read-out: Area under the plasma concentration-time curve AUC0-24 h; for clearance: read-out: Clearance CL; for half-life: read-out: Half-life T½ (converted); for Cmax: read-out: Peak concentration Cmax; for Tmax: read-out: Peak time Tmax; for bioavailability: read-out: Bioavailability F. The source says:
The purpose of this experiment is to study the pharmacokinetics of the test compound in the plasma of CD-1 male mice after intravenous injection and oral administration.
Intravenous injection group: an appropriate amount of the test compound was weighed and dissolved in 20% SBE-b-CD aqueous solution and the pH was adjusted to 4 to 5 with 6 M hydrochloric acid, and the mixture was vortexed for 2, minutes to obtain a clear solution, and then pH was adjusted around 7 with 5 N sodium hydroxide, and the mixture was vortexed for 1 minute to prepare a 1.5 mg/mL clear solution, which was filtered through a 0.22 μm microporous membrane for later use. CD-1 male mice from 6 to 10 weeks old were selected and given a solution of the test compound intravenously. Samples were collected at 0.083, 0.25, 0.5, 1, 2, 4, 6, 8, and 24 hours.
Oral administration group: an appropriate amount of the test compound was weighed and dissolved in 20% SBE-b-CD aqueous solution, and the pH was adjusted to 3 to 4 with 6 M hydrochloric acid, and the mixture was vortexed for 2, minutes to obtain a clear solution, and then pH was adjusted around 7 with 5 N sodium hydroxide, and mixture was vortexed for 1 minute to prepare a 2.0 mg/mL clear solution for later use. CD-1 male mice between 6 and 10 weeks of age were selected and given the test compounds orally. Samples were collected at 0.25, 0.5, 1, 2, 4, 6, 8, 10, and 24 hours.
Approximately 50 μL of whole blood was collected through the jugular vein at each time point for plasma preparation for concentration determination by high performance liquid chromatography-tandem mass spectrometry (LC-MS/MS). All animals were euthanized under CO2 anesthesia after collecting the PK samples at the last time point. The plasma concentration was processed using the non-compartmental model of WinNonlin™ Version 6.3 (Pharsight, Mountain View, CA) pharmacokinetic software, and the pharmacokinetic parameters were calculated using the linear logarithmic trapezoidal method, and the experimental results are shown in Table 4.

In data set [2] the test system is human colon cancer HCT116 cells subcutaneous xenograft tumor. Briefly: In vivo pharmacodynamic study, subcutaneous xenograft tumor model of human colon cancer HCT116 cells. Details: species or system BALB/c Nude mouse. The note with it: 60 mg/kg PO QD (5 days on, 2 days off), tumor volume on day 22 after dosing. How it is done:
In this experiment, human colon cancer HCT116 cells were subcutaneously transplanted into BALB/c Nude mouse model to evaluate the antitumor effect of the test compound in vivo.
HCT116 cell culture: 10% fetal calf serum was added to McCoy's 5A medium and cultured in 37° C. 5% CO2 cell incubator. When the cell saturation reached 80% to 90% and the number reached the requirement, cells were collected, counted and inoculated subcutaneously into BALB/c Nude mice (female, 6 to 7 weeks old)
When the tumors grew to a certain size, the animals with tumor volumes that were too large, too small, or with irregular tumor shapes were eliminated, and animals with tumor volumes ranging from 103.12 to 174.35 mm^3 were selected. According to the tumor volume, the animals were divided into 6 groups by random block method, and each group was composed of 6 mice wherein the average volume of the tumor was about 147.12 mm^3 , and the experimental grouping and dosing regimen were shown in Table 5 below. The health status and death of the animals were monitored every day. Routine inspections included observation of tumor growth and the effects of drug treatment on the daily behavior of the animals, such as behavioral activities, food and water intake, body weight changes (measured twice a week), tumor size (tumor volume was measured twice a week), appearance signs or other abnormal conditions.
The formula for calculating tumor volume (TV) was: ½×a×b^2, where a and b were the measured length and width of the tumor, respectively. The formula for calculating the tumor inhibition rate TGI (%) was: TGI (%)=[1−(average tumor volume at the end of administration of a certain treatment group−average tumor volume at the beginning of administration of this treatment group)/(average tumor volume at the end of treatment of the solvent control group−average tumor volume at the beginning of treatment in solvent control group)]×100%.
In this study, the experimental data were expressed as Mean±SEM. Statistical analysis was based on the data of RTV at the end of the experiment using IBM SPSS Statistics software. The comparison between two groups was analyzed by T test, and the comparison between three or more groups was analyzed by one-way ANOVA. If the variances were homogeneous (the F value had no significant difference), the Tukey's method was used for analysis. If the variances were not homogeneous (the F value had significant differences), and the Games-Howell method was used for testing. p<0.05 was considered as a significant difference.
In general terms: A xenograft is tissue or cells of one species grown in another, often human tumour cells in immunodeficient mice.

In data set [3] the target is human PLK1 protein kinase (Homo sapiens (Human), UniProt P53350). Briefly: PLK1 kinase activity in vitro, 33P isotope-labeled kinase activity assay. The note with it: 33P-ATP 30 μM, substrate Casein, PLK1 12 nM. Format: biochemical. How it is done: The ^33P isotope-labeled kinase activity assay (Reaction Biology Corp) was used to determine the IC50 value to evaluate the inhibitory ability of the test compound to human PLK1 protein kinase.
Sequence of human PLK1 protein kinase (P53350 whole entry): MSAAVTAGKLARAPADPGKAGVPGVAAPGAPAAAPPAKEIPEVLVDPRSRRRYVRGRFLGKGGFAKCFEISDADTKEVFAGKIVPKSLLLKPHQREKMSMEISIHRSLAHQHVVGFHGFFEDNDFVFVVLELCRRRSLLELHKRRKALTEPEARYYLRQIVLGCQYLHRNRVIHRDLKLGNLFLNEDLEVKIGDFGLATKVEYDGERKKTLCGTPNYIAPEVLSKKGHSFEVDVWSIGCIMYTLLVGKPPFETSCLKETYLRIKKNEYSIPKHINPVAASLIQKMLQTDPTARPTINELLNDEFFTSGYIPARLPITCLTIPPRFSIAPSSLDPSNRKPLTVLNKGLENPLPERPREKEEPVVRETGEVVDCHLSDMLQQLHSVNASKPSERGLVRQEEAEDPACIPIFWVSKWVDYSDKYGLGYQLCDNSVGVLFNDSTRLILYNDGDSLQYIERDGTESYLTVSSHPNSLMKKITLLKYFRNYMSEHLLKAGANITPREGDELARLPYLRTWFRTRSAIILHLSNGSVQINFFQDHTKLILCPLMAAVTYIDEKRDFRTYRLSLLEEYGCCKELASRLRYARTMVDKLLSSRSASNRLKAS
Buffer conditions: 20 mM HEPES (pH 7.5), 10 mM MgCl2, 1 mM EGTA, 0.01% Brij35, 0.02 mg/ml BSA, 0.1 mM Na3VO4, 2 mM DTT, 1% DMSO
Test steps: At room temperature, the compounds to be tested were dissolved in DMSO to prepare a 10 mM solution for use. The substrate Casein was dissolved in a freshly prepared buffer (with a final concentration of 20 μM), and the tested PLK1 kinase (with a final concentration of 12 nM) was added thereto and mixed well. The acoustic wave pipetting system Echo 550 was used to add the mother solution of the test compound dissolved in DMSO to the above mixed reaction mixture according to the set final concentration gradient (the highest final concentration was 1 μM, 3-fold dilution, 10 gradients). After incubation at room temperature for 20 minutes, ^33P-ATP (30 μM) was added, and after incubation at room temperature for 120 minutes, the reaction mixture was spotted on P81 ion exchange filter paper (Whatman #3698-915).

In data set [4] the test system is KRAS-mutant mCRC patients. The note with it: cited from earlier work.

In general, IC50 refers to the concentration that inhibits the measured activity by half. Low readings indicate greater potency in that assay, high ones weaker potency in that assay. The half-life is the time in which the quantity being followed falls by half. For orientation: Tmax means the time at which the peak concentration occurs. In general, bioavailability refers to the share of a dose that reaches the circulation, judged against a reference dose that is usually intravenous. A word on the TGI: it is the reduction of tumour growth relative to the control group. A low value points to a weaker effect on the tumour. `CCOc1sc(C(N)=O)c2c1-c1nc(Nc3cc(N4CCN(C)CC4)ccc3OC(F)(F)F)ncc1CC2` [Compound 2] registered an IC50 with HCT116 cells (Homo sapiens, HCT-116, 120 h) of 30.8 nM. In addition, in data set [1] (mouse, IV, 1.0 mg/kg, plasma), the Vd worked out at 2.89 L/kg, the AUC(0-t) is 0.624 µM·h, the clearance amounted to 47.9 mL/min/kg and the half-life is 69 min. Besides, in data set [1] (mouse, PO, 3.0 mg/kg, plasma), the AUC(0-t) was 1.02 µM·h, the Cmax turned out to be 478 nM and the time of peak concentration (Tmax) amounted to 45 min. The bioavailability in data set [1] (mouse, plasma, PO 3.0 mg/kg vs IV 1.0 mg/kg) is 54.2%. Further, the tumour growth inhibition (TGI) in data set [2] was 72.5%.
Consider `CSc1sc(C(=O)NO)c2c1-c1nc(Nc3cc(N4CCN(C)CC4)ccc3OC(F)(F)F)ncc1CC2` [Compound 23], for which the half-inhibitory concentration (IC50) in the data set on HCT116 cells (Homo sapiens, HCT-116, 120 h) came out at 72 nM.
For the compound `CN1CCN(c2ccc(OC(F)(F)F)c(Nc3ncc4c(n3)-c3c(OC5CC5)sc(C(N)=O)c3CC4)c2)CC1` [Compound 18], the IC50 in data set [3] was found to be 4.3 nM. In addition, half-maximal inhibition in the data set on HCT116 cells (IC50) was put at 74.5 nM. Further, in data set [1] (IV, 1.1 mg/kg, plasma), the “Apparent volume of distribution Vdss” value was found to be 2.38 L/kg, the “Area under the plasma concentration-time curve AUC0-24 h” value came out at 0.94 µM·h, the “Clearance CL” value was found to be 31.4 mL/min/kg and the “Half-life T½” value is 73.2 min. Besides, in data set [1] (PO 3.4 mg/kg vs IV 1.1 mg/kg), the “Bioavailability F” value is given as 82.5%. Besides, in data set [1] (PO, 3.4 mg/kg, plasma), the “Area under the plasma concentration-time curve AUC0-24 h” value turned out to be 2.129 µM·h, the “Peak time Tmax” value worked out at 60 min and the Cmax was determined as 688 nM.
`CN1CCN(c2ccc(OC(F)(F)F)c(Nc3ncc4c(n3)-c3c(C5CC5)sc(C(N)=O)c3CC4)c2)CC1` [Compound 16] came in with an IC50 in the data set with HCT116 cells (Homo sapiens, HCT-116, 120 h) of 29.2 nM.
In turn, `CN1CCN(c2ccc(OC(F)(F)F)c(Nc3ncc4c(n3)-c3c(C#N)sc(C(N)=O)c3CC4)c2)CC1` [Compound 13] showed an IC50 in data set [3] of 4.9 nM.
In data set [3], `CN1CCN(c2ccc(OC(F)(F)F)c(Nc3ncc4c(n3)-c3c(CCO)sc(C(N)=O)c3CC4)c2)CC1` [Compound 6] came in with an IC50 of 6.9 nM.
`CN1CCN(c2ccc(OC(F)(F)F)c(Nc3ncc4c(n3)-c3c(-c5ccco5)sc(C(N)=O)c3CC4)c2)CC1` [Compound 20] came in with an IC50 in the data set with HCT116 cells (Homo sapiens, HCT-116, 120 h) of 58.6 nM.
Turning to `CN1CCN(c2ccc(OC(F)(F)F)c(Nc3ncc4c(n3)-c3c(c(C(N)=O)nn3CCO)CC4)c2)CC1` [Onvansertib], the “safety profile in clinical studies” value in data set [4] (clinical studies) is recorded as “acceptable safety profile”. Further, in data set [4] (share of KRAS-mutant mCRC patients, early clinical research), the clinical benefit is 88%.
In data set [3], `CSc1sc(C(N)=O)c2c1-c1nc(Nc3cc(N4CC5CC(C4)N5C)ccc3OC(F)(F)F)ncc1CC2` [Compound 15] gave a 50% inhibitory concentration (IC50) of 6.4 nM.
In the case of `CSc1sc(C(N)=O)c2c1-c1nc(Nc3cc(N4CCN(C)CC4)ncc3OC(F)(F)F)ncc1CC2` [Compound 5], the IC50 in data set [3] was determined as 2.6 nM.
In the case of `COc1nnc(N2CCN(C)CC2)cc1Nc1ncc2c(n1)-c1c(SC)sc(C(N)=O)c1CC2` [Compound 17], the concentration for half-maximal inhibition (IC50) in the data set with HCT116 cells (Homo sapiens, HCT-116, 120 h) came out at 18.3 nM.
In the case of `CSc1sc(C(N)=O)c2c1-c1nc(Nc3cc(N4CCN(CCO)CC4)ccc3OC(F)(F)F)ncc1CC2` [Compound 8], in the data set on HCT116 cells (Homo sapiens, HCT-116, 120 h), inhibition was half-maximal at 52 nM (IC50). In data set [1] (mouse, IV, 0.5 mg/kg, plasma), the Vd was found to be 2.04 L/kg, the AUC(0-t) worked out at 0.374 µM·h, the clearance amounted to 37.4 mL/min/kg and the half-life is 44.4 min. Further, in data set [1] (mouse, PO, 2.2 mg/kg, plasma), the AUC(0-t) was determined as 0.459 µM·h, the Cmax stood at 157 nM and the time to peak (Tmax) is 45 min. For the same compound, the bioavailability in data set [1] (mouse, plasma, PO 2.2 mg/kg vs IV 0.5 mg/kg) turned out to be 30.9%. In addition, the inhibition of tumour growth (TGI) in data set [2] is 85.4%.
In the case of `CN1CCN(c2ccc(OC(F)(F)F)c(Nc3ncc4c(n3)-c3c(SCCO)sc(C(N)=O)c3CC4)c2)CC1` [Compound 3], half-maximal inhibition in data set [3] (IC50) was put at 5 nM.
Consider `CSc1sc(C(N)=O)c2c1-c1nc(Nc3cc(N4CCN(C)CC4)ccc3OC(F)F)ncc1CC2` [Compound 4], for which the concentration for half-maximal inhibition (IC50) in data set [3] was determined as 1 nM; in the data set with HCT116 cells, 35 nM.
